From patent US5536645A, “Nutritive medium for the culture of microorganism” (priority 1993, dated 1996)
Where two headings read alike, the source gives them in different places. Ends that are not written are not given here.

Tests used:
Assay type in all cases: cell-based
enterococci = experiment: Effect of medium constituents and peptides on growth of enterococci; settings: for base requirements of the enterococci: supplied as precursors; for growth: addition of peptides to the medium
Source text: It is moreover known to affect the activity of the sulfamides and trimethoprim family (Then R. et al., Mecanisme moleculaire de la bactericidie; sulfamides et trimethoprime [Molecular mechanism of bactericidal activity; sulfamides and trimethoprim]. Bactericidie 1990, Editions Maloine, Paris).
The purine and pyrimidine bases can be supplied in several forms, that is to say in the form of precursors, of free bases, of nucleosides or of nucleotides. […] The proportions between purines and pyrimidines were defined in relation to those described for the synthesis of RNA by Neidhart (Neidhart et al. (1990) Physiology of the bacterial cell. A molecular approach. Sinauer associates, inc. U.S.A.), taking account of the absence of thymidine, that is to say purines/pyrimidines in a ratio of between 1.5 and 2.2 and advantageously of 1.8. The final concentrations were then optimized essentially to satisfy the growth of the staphylococci and of the enterococci.

[1] = test system: non-saccharolytic species, such as Alcaligenes faecalis and Pseudomonas acidovorans; experiment: Effect of L-malic acid on growth (FIG. 10); settings: 500 mg/l in FIG. 10
Description: (§1) The carbon sources of the medium of the invention are mainly represented by a sugar, preferably D-glucose, and an organic acid, in particular L-malic acid. D-glucose has been retained, taking account of its utilization by a large number of bacterial species with fermentative or non-fermentative metabolism (Stanier R. Y. et al. (1966) The aerobic Pseudomonas: a taxonomic study. J. Gen. Microbiol. 43: 159-271). Its concentration in the medium of the invention was determined to obtain a biomass close to that obtained with the reference Mueller-Hinton medium. […] The respective concentrations of D-glucose and L-malic acid were determined to correspond to the qualities of Mueller-Hinton.

Pseudomonas aeruginosa = experiment: Effect of L-malic acid on growth (FIG. 11); settings: 500 mg/l in FIG. 11
Description: FIGS. 11 illustrates the effect of L-malic acid on the growth of Pseudomonas aeruginosa, curve a corresponding to the growth obtained with an IST medium devoid of L-malic acid and curve b after addition of a concentration of 500 mg/l of L-malic acid.
as §1

[2] = test system: Proteus, Morganella, Providencia and Serratia; experiment: Effect of polyamines on growth; settings: preferential concentration 0.75 mg/l
Description: The polyamines are present in the eukaryotic and prokaryotic cells and participate in numerous biological reactions including the synthesis of nucleic acids and of proteins (see Tabor C. W. and Tabor H. (1985) Polyamines in Microorganisms, Microbiol. Rev. 49: 81-99). Putrescine, spermine and spermidine were tested. […] FIG. 7 illustrates the effect of spermidine on the growth of Proteus mirabilis.

E. coli = experiment: microbe, parasite or virus in culture; settings: for MIC: Escherichia coli, 12 h, read-out: Equivalent MIC
Description: (§2) With the determination of the sensitivity to antibiotics in mind, a suspension of 0.5 MF (Mac Farland) in physiological water was prepared from bacterial colonies selected in Petri dishes, reading being carried out on an ATB 1550 densitometer marketed by BIOMERIEUX (ATB trade mark). The suspension obtained was respectively diluted to 1/100th in the medium of the invention and Mueller-Hinton medium. VITEK cards (VITEK trade mark) containing different antibiotics at 10 concentrations were filled in vacuo into a VITEK apparatus marketed by BIOMERIEUX-VITEK. The cards were incubated for 12 hours in a VITEK incubator/reader marketed by BIOMERIEUX-VITEK. The growth kinetics were visualized and interpreted and an equivalent MIC was determined (equivalent MIC: equivalent minimum inhibitory concentration, that is to say the smallest concentration for which no bacterial growth is detected by the apparatus).
(§3) IST refers to the medium of the invention and MH signifies Mueller-Hinton medium.
(§4) S, I and R respectively signify "sensitive", "intermediate" and "resistant" with reference to the critical concentrations defined by the NCCLS (National Committee for Clinical Laboratory Standards).

P. aeruginosa = experiment: Equivalent MIC of antibiotics in VITEK cards, gram-negative bacteria (Table 3); settings: for MIC: Pseudomonas aeruginosa
Description: as §2, §3, §4

S. marcescens = experiment: as above; settings: for MIC: Serratia marcescens, 12 h
Description: as §2, §3, §4

[3] = test system: enterococci and streptococci of group B; experiment: Effect of lipoic acid on growth (FIG. 6); settings: 0.01 mg/l in FIG. 6
Source text: FIG. 6 illustrates the effect of lipoic acid on the growth of Enterococcus faecalis.

Serratia marcescens = experiment: Effect of serine concentration on growth (FIG. 1); settings: serine concentration increased by a factor of 10 in IST medium
Source text: Curve b represents the growth with the IST medium for a concentration of serine increased by a factor of 10. Curve c represents the growth obtained with the Mueller-Hinton medium.
The qualitative and quantitative composition of amino acids was then optimized for the different species in order to obtain growth in conformity with that obtained with the reference Mueller-Hinton medium. […] The final concentrations of amino acids were defined, after having verified their importance on the final biomass, taking account of the biomass obtained in Mueller-Hinton medium.

[4] = test system: Enterococcus hirae and Enterococcus faecium; experiment: Effect of tetrapeptide on growth (FIG. 14); settings: 50 or 100 mg/l of peptide in FIG. 14
Description: Curve a corresponds to the results obtained with the medium of the invention without addition of the abovementioned peptide, nor addition of constituent free amino acids of this peptide. Curve b illustrates the results obtained with the addition of amino acids Ala, Gly, Ser, GLu respectively at concentrations of 11, 9, 12.5 and 17.5 mg/l. […] Curve d corresponds to the bacterial growth obtained after addition to the medium of 50 mg/l of the peptide. Curve e illustrates the results obtained after addition of 100 mg/l of the same peptide.
Among the peptides tested, only those showing size a less than or equal to 15 amino acids cause a strong increase in the growth.

staphylococci = experiment: Effect of ethyl oxaloacetate on growth (FIG. 8); settings: 5 mg/l in FIG. 8
Source text: Ethyl oxaloacetate is described for its stimulatory effect on the growth of numerous species (Pelczar M. J. and Brown J. H. (1951) Synthetic culture media for reference use in dairy bacteriology, J. Milk Food Technol., 14: 90-91 and 97).

Q: With `Nc1nc2ncc(CNc3ccc(C(=O)N[C@@H](CCC(=O)O)C(=O)O)cc3)nc2c(=O)[nH]1` [Folic acid, folic acid] as the compound, how does the “importance for the growth of enterococci” value (enterococci; E. faecalis, E. faecium and E. hirae, 0.005 mg/l in FIG. 5) read?
A: importance for the growth of enterococci

Q: `O=C(O)C[C@H](O)C(=O)O` [L-malic acid] was tested. Which growth [1] did it give?
A: necessary for the growth of the non-saccharolytic species

Q: What about the growth (Pseudomonas aeruginosa) of the same compound?
A: increases the growth of Pseudomonas aeruginosa

Q: How did the growth [2] turn out when `NCCCCNCCCN` [Spermidine, spermidine] was run?
A: chosen according to the results, especially for the growth of Proteus, Morganella, Providencia and Serratia

Q: Which results are given for `CC(C)(O/N=C(\C(=O)N[C@@H]1C(=O)N2C(C(=O)[O-])=C(C[n+]3ccccc3)CS[C@H]12)c1csc(N)n1)C(=O)O` [ceftazidim]?
A: NCCLS Category (E. coli; CDC 2008, IST medium): S; NCCLS Category (E. coli; CDC 2008, MH medium): S; NCCLS Category (E. coli; CDC 2254, IST medium): S; NCCLS Category (E. coli; CDC 2254, MH medium): S; MIC (E. coli; CDC 2008, IST medium): < 0.06 µg/mL; MIC (E. coli; CDC 2008, MH medium): < 0.06 µg/mL; MIC (E. coli; CDC 2254, IST medium): 0.5 µg/mL; MIC (E. coli; CDC 2254, MH medium): 1 µg/mL; NCCLS Category (P. aeruginosa; AP 9, IST medium): R; NCCLS Category (P. aeruginosa; AP 9, MH medium): R; NCCLS Category (P. aeruginosa; AP 13, IST medium): S; NCCLS Category (P. aeruginosa; AP 13, MH medium): S; NCCLS Category (P. aeruginosa; ATCC 27853, IST medium): S; NCCLS Category (P. aeruginosa; ATCC 27853, MH medium): S; NCCLS Category (P. aeruginosa; CDC 2275, IST medium): S; NCCLS Category (P. aeruginosa; CDC 2275, MH medium): S; MIC (P. aeruginosa; 12 h, read-out: Equivalent MIC, AP 9, IST medium): 32 µg/mL; MIC (P. aeruginosa; 12 h, read-out: Equivalent MIC, AP 9, MH medium): 32 µg/mL; MIC (P. aeruginosa; 12 h, read-out: Equivalent MIC, AP 13, IST medium): 4 µg/mL; MIC (P. aeruginosa; 12 h, read-out: Equivalent MIC, AP 13, MH medium): 4 µg/mL; MIC (P. aeruginosa; 12 h, read-out: Equivalent MIC, CDC 2275, IST medium): 4 µg/mL; MIC (P. aeruginosa; 12 h, read-out: Equivalent MIC, CDC 2275, MH medium): 4 µg/mL; MIC (P. aeruginosa; ATCC27853, 12 h, read-out: Equivalent MIC, ATCC 27853, IST medium): 1 µg/mL; MIC (P. aeruginosa; ATCC27853, 12 h, read-out: Equivalent MIC, ATCC 27853, MH medium): 2 µg/mL; NCCLS Category (S. marcescens; CDC 2102, IST medium): S; NCCLS Category (S. marcescens; CDC 2102, MH medium): S; NCCLS Category (S. marcescens; CDC 2162, IST medium): S; NCCLS Category (S. marcescens; CDC 2162, MH medium): S; NCCLS Category (S. marcescens; CDC 2240, IST medium): S; NCCLS Category (S. marcescens; CDC 2240, MH medium): S; MIC (S. marcescens; read-out: Equivalent MIC, CDC 2102, IST medium): 0.5 µg/mL; MIC (S. marcescens; read-out: Equivalent MIC, CDC 2102, MH medium): 0.25 µg/mL; MIC (S. marcescens; read-out: Equivalent MIC, CDC 2162, IST medium): 2 µg/mL; MIC (S. marcescens; read-out: Equivalent MIC, CDC 2162, MH medium): 2 µg/mL; MIC (S. marcescens; read-out: Equivalent MIC, CDC 2240, IST medium): 0.5 to 1 µg/mL; MIC (S. marcescens; read-out: Equivalent MIC, CDC 2240, MH medium): 1 µg/mL

Q: How did the “base requirements of the enterococci” value (enterococci) turn out when `O=c1[nH]cnc2nc[nH]c12` [hypoxanthine] was run?
A: does not satisfy the base requirements of the enterococci

Q: Which growth [3] does the source give for `O=C(O)CCCCC1CCSS1` (stereo not drawn) [lipoic acid] here?
A: allowing the growth of the enterococci and of the streptococci of group B to be increased to a maximum

Q: With `N[C@@H](CO)C(=O)O` [serine] as the compound, how does the bacterial growth (Serratia marcescens) read?
A: near to that obtained with Mueller-Hinton medium

Q: How did the “base requirements of the enterococci” value (enterococci) turn out when `O=c1cc[nH]c(=O)[nH]1` [uracil] was run?
A: does not satisfy the base requirements of the enterococci

Q: With ASDAKAYDTEV as the compound, how does the growth (enterococci) read?
A: interesting results for other strains of Enterococci

Q: Which growth [4] does the source give for “Ala-Gly-Ser-Glu (AGSE) [Ala-Gly-Ser-Glu (SEQ ID NO: 1)]” here?
A: considerable increase in the growth

Q: With EDRPPLFGQGTV as the compound, how does the growth (enterococci) read?
A: interesting results for other strains of Enterococci

Q: For ethyl oxaloacetate, which growth (staphylococci) is on record?
A: allowing the growth of the staphylococci to be increased without inhibiting that of the other species
